Measurements reported in patent US20070154464A1, “Methods for screening for agents capable of modulating t lymphocyte function in response to a herpes simplex virus-infected cell” (priority 2003, published 2007).
Where two headings read alike, the source gives them in different places.

How the values were obtained:
CD8+ CTL clone SKH-13 = format: cell-based, human
HSV-2 = experiment: Quantitative real-time PCR (TaqMan) of HSV levels in fibroblasts and CTL; format: cell-based
Procedure: Quantitative Real-Time PCR Using TaqMan® Chemistry: CTL were incubated with uninfected or HSV-infected fibroblasts for 4 h, removed by aspiration, and incubated for 5 h at 37° C. In the acyclovir group, fibroblasts were treated with 50 μM acyclovir for 2 h prior to infecting with HSV for 6 h. Removed CTL were then incubated with CD8-conjugated Dynabeads® (Dynal A.S., Oslo, Norway) for 30 m rocking at 4° C. and washed as directed by the manufacturer. DNA was purified from uninfected fibroblasts, HSV-infected fibroblasts, and CD8 enriched CTL using DNeasy® Tissue Kits (Qiagen, Valencia, Calif.). DNA was quantified by spectrophotometry and used as template in TaqMan® real-time PCR reactions with primers and fluorogenic probes specific for the HSV glycoprotein B gene or the cellular beta-globin gene. Reactions were carried out using an ABI 7700 Sequencer (Applied Biosystems, Foster City, Calif.), and the sequences and concentrations of the primers and probes used were as previously described (Liu et al., J. Virol. 75:11178, 2001).
The most sensitive technique available to detect the presence of HSV is real-time, quantitative PCR. Primers and probes against a viral gene (gB) and a cellular gene (beta globin) were used to determine the number of HSV copies per cell in HSV-infected fibroblasts and in inactivated CTL. […]

CTL [1] = experiment: Redirected cell lysis of 51Cr-labeled FcγR+ P815 target cells by anti-CD3-labeled CTL; format: cell-based, human; settings: antibody 1 μg/ml for 15 m; control vs inactivated CTL; 5 h
T cells = format: cell-based, human
HSV-inactivated T cells = format: cell-based, human
CTL [2] = experiment: Mitochondrial potential of CTL by MitoTracker Red CMXRos flow cytometry; format: cell-based, human; settings: 1 μM, 4 h, CTL without fibroblasts
Procedure: Mitochondrial potential was assessed in untreated CTL, CTL treated with 1 μM staurosporine (Sigma, St. Louis, Mo.) for 4 h, CTL incubated with uninfected fibroblasts (control) for 4 h, and CTL incubated with HSV-infected fibroblasts (inactivated) for 4 h. CTL were then stained using MitoTracker® Red CMXRos as per the manufacturer's instructions (Molecular Probes, Inc., Eugene, Oreg.). Control and inactivated CTL were also stained with antibody against CD95/Fas (clone DX2, Dako, Carpinteria, Calif.) and with the DNA-binding dye 7-amino-actinomycin D (7-AAD, Sigma, St. Louis, Mo.) and analyzed by flow cytometry.

For `C/C=C/[C@H]1O[C@@](O)([C@@H](C)[C@H](O)[C@H](C)[C@H]2OC(=O)/C(OC)=C/C(C)=C/[C@@H](C)[C@@H](O)[C@@H](CC)[C@@H](O)[C@H](C)C/C(C)=C/C=C/[C@@H]2OC)C[C@@H](O)[C@@H]1C` [concanamycin], the “51Cr release from target cells by SKH-13 CTL clone” value (CD8+ CTL clone SKH-13) was “prevented ^51Cr release from target cells”.

`Nc1nc2c(ncn2COCCO)c(=O)[nH]1` [acyclovir] was tested, and the “# HSV Copies/cell” value (HSV-2; CTL incubated 4 h on HSV-2-infected fibroblasts treated with 50 μM acyclovir, CD8-bead enriched) was 0.16 Copies/cell and the “HSV copies detected per CTL” value (HSV-2; fibroblasts treated with 50 μM acyclovir prior to infection, inactivated CTL) was 1 copy of HSV was detected per 6 CTL.

With “OKT3: monoclonal antibody raised against CD3 (clone OKT3, Ortho-McNeil)” the “Lytic granule release via redirected lysis” value (CTL [1]) was “Control but not inactivated CTL were capable of lytic granule release” and the “TNF-α and IFN-γ synthesis by inactivated T cells” value (T cells) was “failed to synthesize TNF-α and IFN-γ”.

For “IL-15: human recombinant IL-15 (Peprotech)”, the “Restoration of lytic function to HSV-inactivated T cells” value (HSV-inactivated T cells) was “not to restore lytic function”.

With `CN[C@@H]1C[C@H]2O[C@@](C)([C@@H]1OC)n1c3ccccc3c3c4c(c5c6ccccc6n2c5c31)C(=O)NC4` [staurosporine] the “CMXRos signal (mitochondrial membrane potential) in CTL” value (CTL [2]) was “significant decrease in the CMXRos signal”.

In the case of `C[C@@H]1C[C@@H]([C@H](O)CC2CC(=O)NC(=O)C2)C(=O)[C@@H](C)C1` [CHX, cyclohexamide], the “Effect on HSV-mediated inactivation of CTL” value (CD8+ CTL clone SKH-13; CTL (5 h prior) or targets exposed to 10 μg/ml) is reported as “no effect on HSV-mediated inactivation” and the “Effect on HSV-mediated inactivation of CTL” value (CD8+ CTL clone SKH-13; fibroblasts treated with 10 μg/ml for 10 h prior to infection) is reported as “abolished HSV-mediated inactivation”.

B1: IL-7: human recombinant IL-7 (RnDSystems) (protein, UniProt P13232 26-177, looked up)
Interleukin-7: DCDIEGKDGKQYESVLMVSIDQLLDSMKEIGSNCLNNEFNFFKRHICDANKEGMFLFRAARKLRQFLKMNSTGDFDLHLLKVSEGTTILLNCTGQVKGRKPAALGEAQPTKSLEENKSLKEQKKLNDLCFLKRLLQEIKTCWNKILMGTKEH
For B1, the “Restoration of lytic function to HSV-inactivated T cells” value (HSV-inactivated T cells) was “not to restore lytic function”.
